# Measurements reported in ChEMBL document CHEMBL1140868, “Current perspective of TACE inhibitors: a review” (Bioorg Med Chem, 2009).
# What was measured:
# [1] = target: Matrix metalloproteinase-9 (Homo sapiens, UniProt P14780); experiment: Inhibition of MMP9
# [2] = target: 72 kDa type IV collagenase (Homo sapiens, UniProt P08253); experiment: Inhibition of MMP2
# [3] = target: T1, Disintegrin and metalloproteinase domain-containing protein 17 (Homo sapiens, UniProt P78536); experiment: Inhibition of TACE
# [4] = Selectivity for TACE over MMP1
# Mus musculus [5] = experiment: Inhibition of TNFalpha production in mouse at 50 mg/kg, po after 1 hr; assay type: functional
# THP-1 = experiment: Inhibition of LPS-induced TNFalpha production in human THP1 cells; assay type: functional, cell-based
# Interstitial collagenase = target: T2, Interstitial collagenase (Homo sapiens, UniProt P03956); experiment: Inhibition of MMP1
# T2 sequence (P03956 whole entry): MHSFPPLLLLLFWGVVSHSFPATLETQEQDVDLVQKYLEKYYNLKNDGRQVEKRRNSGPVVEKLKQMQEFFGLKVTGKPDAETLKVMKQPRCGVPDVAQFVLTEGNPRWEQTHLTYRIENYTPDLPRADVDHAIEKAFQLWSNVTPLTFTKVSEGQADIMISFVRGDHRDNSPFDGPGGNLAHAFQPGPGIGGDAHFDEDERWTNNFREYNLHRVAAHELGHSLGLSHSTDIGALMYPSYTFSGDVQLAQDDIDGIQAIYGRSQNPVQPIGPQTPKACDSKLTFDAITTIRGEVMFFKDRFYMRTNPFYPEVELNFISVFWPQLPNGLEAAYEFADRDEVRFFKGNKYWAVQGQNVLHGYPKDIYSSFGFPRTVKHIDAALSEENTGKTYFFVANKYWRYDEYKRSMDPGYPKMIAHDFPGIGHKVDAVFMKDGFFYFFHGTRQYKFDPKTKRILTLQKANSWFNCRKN
# Collagenase 3 = Collagenase 3 (Homo sapiens, UniProt P45452); experiment: Inhibition of MMP13
# [6] = target: T1, Disintegrin and metalloproteinase domain-containing protein 17; experiment: Inhibition of TACE by cell free assay
# [7] = Half life in rat LPS model; assay type: ADME, organism-based; conditions: in vivo
# [8] = target: Disintegrin and metalloproteinase domain-containing protein 17 (Sus scrofa, UniProt O77636); experiment: Inhibition of pig TACE
# [9] = Inhibition of TNFalpha production in whole blood; assay type: functional, tissue-based
# [10] = Selectivity for TACE over MMP2
# [11] = Selectivity for TACE over MMP9
# [12] = Bioavailability in rat; assay type: ADME, organism-based; conditions: in vivo
# Rattus norvegicus = experiment: Inhibition of LPS-induced TNFalpha production in po dosed rat plasma; assay type: functional
# [13] = target: T1, Disintegrin and metalloproteinase domain-containing protein 17; experiment: Inhibition of TACE in human PBMC
# Mus musculus [14] = experiment: Inhibition of TNFalpha production in mouse at 100 mg/kg, po after 1 hr; assay type: functional
# [15] = Fraction unbound in human serum; assay type: ADME, cell-free
# Blood = experiment: Inhibition of TNFalpha production in human whole blood; assay type: functional, tissue-based
# [16] = Oral bioavailability in dog; assay type: ADME, organism-based, Canis lupus familiaris; conditions: in vivo
# Mus musculus [17] = experiment: Inhibition of LPS-induced TNFalpha production in po dosed mouse; assay type: functional
# [18] = Oral bioavailability in rat; assay type: ADME, organism-based; conditions: in vivo
# [19] = Half life in human; assay type: ADME, organism-based; conditions: in vivo
# T1 sequence (P78536 whole entry, the tested form may be a part): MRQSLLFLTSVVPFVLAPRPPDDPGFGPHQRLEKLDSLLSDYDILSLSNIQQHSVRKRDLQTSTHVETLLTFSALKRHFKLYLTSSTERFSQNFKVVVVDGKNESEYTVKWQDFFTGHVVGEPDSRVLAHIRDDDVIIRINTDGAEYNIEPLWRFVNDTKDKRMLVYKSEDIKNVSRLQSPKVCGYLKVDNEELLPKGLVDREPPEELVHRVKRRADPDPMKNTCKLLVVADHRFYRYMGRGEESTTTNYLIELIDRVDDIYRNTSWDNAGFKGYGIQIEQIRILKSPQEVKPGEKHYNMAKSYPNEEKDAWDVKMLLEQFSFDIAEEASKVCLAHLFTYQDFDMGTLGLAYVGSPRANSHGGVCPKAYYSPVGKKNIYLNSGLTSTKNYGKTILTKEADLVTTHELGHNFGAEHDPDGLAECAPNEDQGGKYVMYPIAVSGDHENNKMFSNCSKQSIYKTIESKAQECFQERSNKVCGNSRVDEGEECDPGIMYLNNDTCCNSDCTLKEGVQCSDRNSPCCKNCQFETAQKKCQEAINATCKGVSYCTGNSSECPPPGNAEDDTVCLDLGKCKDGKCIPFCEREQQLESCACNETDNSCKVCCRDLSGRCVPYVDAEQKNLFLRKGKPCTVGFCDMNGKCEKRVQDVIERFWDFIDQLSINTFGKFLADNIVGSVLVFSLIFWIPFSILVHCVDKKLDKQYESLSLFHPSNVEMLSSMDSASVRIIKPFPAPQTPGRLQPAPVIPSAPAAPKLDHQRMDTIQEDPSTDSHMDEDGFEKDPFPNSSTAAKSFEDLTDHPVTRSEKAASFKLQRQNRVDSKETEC
# Chain of Disintegrin and metalloproteinase domain-containing protein 17 (Sus scrofa, UniProt O77636) (O77636 whole entry, the tested form may be a part): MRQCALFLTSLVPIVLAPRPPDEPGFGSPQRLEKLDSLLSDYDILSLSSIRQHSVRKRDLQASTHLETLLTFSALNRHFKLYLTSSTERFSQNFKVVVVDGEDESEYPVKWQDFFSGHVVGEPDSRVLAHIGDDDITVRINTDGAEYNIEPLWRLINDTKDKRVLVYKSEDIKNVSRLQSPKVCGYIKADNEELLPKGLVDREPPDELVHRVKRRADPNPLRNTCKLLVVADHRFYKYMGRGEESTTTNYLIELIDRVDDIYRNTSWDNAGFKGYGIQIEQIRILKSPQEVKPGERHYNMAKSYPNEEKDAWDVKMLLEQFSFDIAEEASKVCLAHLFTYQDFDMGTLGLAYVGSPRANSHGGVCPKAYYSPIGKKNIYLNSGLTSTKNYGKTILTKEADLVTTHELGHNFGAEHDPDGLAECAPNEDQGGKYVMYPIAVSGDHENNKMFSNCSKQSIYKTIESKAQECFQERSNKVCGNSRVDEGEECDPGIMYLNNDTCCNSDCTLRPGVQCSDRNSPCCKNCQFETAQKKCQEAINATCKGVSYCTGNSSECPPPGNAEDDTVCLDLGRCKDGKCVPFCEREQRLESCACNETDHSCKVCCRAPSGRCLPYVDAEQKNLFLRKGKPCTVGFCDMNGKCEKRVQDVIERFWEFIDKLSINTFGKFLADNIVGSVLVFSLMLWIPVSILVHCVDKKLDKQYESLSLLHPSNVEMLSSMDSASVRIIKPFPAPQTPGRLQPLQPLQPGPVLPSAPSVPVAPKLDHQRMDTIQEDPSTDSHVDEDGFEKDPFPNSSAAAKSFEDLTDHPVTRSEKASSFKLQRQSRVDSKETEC
# Chain of 72 kDa type IV collagenase (P08253 whole entry, the tested form may be a part): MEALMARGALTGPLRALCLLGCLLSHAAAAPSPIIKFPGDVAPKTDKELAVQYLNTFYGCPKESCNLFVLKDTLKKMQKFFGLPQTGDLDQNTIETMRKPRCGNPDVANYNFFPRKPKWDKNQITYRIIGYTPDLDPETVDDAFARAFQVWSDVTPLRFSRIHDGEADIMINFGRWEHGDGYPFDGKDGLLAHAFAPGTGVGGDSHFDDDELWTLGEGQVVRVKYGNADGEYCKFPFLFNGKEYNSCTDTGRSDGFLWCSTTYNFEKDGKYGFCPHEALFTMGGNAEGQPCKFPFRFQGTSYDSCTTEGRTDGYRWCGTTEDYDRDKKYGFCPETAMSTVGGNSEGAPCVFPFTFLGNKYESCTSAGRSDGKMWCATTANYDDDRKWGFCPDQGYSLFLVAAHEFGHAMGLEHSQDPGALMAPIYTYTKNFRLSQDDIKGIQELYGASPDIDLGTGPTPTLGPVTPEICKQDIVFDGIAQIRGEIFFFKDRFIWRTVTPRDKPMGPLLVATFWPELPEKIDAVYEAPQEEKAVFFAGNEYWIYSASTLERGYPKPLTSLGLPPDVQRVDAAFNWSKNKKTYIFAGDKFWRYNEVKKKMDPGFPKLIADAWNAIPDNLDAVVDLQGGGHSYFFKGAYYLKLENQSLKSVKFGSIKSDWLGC
# Chain of Matrix metalloproteinase-9 (P14780 whole entry): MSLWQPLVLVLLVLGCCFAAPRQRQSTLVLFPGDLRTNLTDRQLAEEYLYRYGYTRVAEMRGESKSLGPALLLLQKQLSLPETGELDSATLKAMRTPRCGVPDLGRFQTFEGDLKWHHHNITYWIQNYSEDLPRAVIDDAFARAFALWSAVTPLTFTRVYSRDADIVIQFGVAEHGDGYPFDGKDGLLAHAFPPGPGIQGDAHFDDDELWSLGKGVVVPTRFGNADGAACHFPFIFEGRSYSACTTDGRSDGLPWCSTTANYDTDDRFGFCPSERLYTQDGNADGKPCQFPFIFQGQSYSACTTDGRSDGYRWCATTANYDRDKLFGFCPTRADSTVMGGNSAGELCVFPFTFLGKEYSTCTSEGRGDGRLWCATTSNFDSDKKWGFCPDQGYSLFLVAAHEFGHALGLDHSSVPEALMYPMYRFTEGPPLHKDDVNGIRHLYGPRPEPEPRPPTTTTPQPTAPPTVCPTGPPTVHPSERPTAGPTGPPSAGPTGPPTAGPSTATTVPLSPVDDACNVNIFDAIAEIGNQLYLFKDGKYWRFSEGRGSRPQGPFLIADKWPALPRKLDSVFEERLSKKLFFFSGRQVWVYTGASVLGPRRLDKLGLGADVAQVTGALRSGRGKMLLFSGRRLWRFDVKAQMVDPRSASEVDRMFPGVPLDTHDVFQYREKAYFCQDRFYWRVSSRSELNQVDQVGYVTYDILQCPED
compound,measurement,setting,value
C/C=C/C=C/C=C1/C=C(CCC(=O)NO)C(=O)OC1,IC50,[1],23 nM
same,IC50,[2],6 nM
same,IC50,[3],28 nM
C[C@H](C(=O)NO)N1CC[C@@](C)(c2ccc(-c3ccccc3)cc2)C1=O,IC50,[3],13000 nM
CC1(C)SCCN(S(=O)(=O)c2ccc(Oc3ccncc3)cc2)[C@H]1C(=O)NO [PRINOMASTAT],IC50,[3],22 nM
CC#CCOc1ccc(S(=O)(=O)N(C)c2c(N3CCN(C)CC3)ccc(Br)c2C(=O)NO)cc1,Selectivity ratio,[4],500
same,inhibition in vivo at 50 mg/kg,Mus musculus [5],100%
same,IC50,[3],25 nM
CC(C)Cc1ccc([C@]2(C)CCN([C@H](C)C(=O)NO)C2=O)cc1,IC50,[3],1000 nM
CNC(=O)[C@H](Cc1ccc(NC(=N)N)cc1)NC(=O)[C@H](CC(C)C)[C@H](CCCc1ccccc1)C(=O)NO,IC50,THP-1,130 nM
same,IC50,Interstitial collagenase,6 nM
same,IC50,Collagenase 3,0.1 nM
Cc1cc(COc2ccc(C(=O)NC3(C)C(=O)NC(=O)NC3=O)cc2)c2ccccc2n1,IC50,[3],0.026 nM
CCC[C@@H]([C@@H](CC(C)C)C(=O)C[C@@H](CCCN/C(N)=N/[N+](=O)[O-])C(=O)Nc1nccs1)N(O)C=O,IC50,[6],4.3 nM
C[C@H](C(=O)NO)N1CC[C@@](C)(c2ccc(OCc3ccccc3)cc2)C1=O,IC50,[3],4 nM
CC[C@H](C)[C@H](NC(=O)[C@H](CC(C)C)[C@H](C(C)C)N(O)C=O)C(=O)Nc1ccccn1,IC50,[6],40 nM
same,half-life,[7],> 12 h
Cc1cc(COc2ccc(C(=O)NCCC(=O)NO)cc2)c2ccccc2n1,IC50,[8],1 nM
Cc1cc(COc2ccc(S(=O)(=O)CC3C(C(=O)NO)CCN3C)cc2)c2ccccc2n1 (stereo unspecified),Selectivity ratio,[4],2000
same,IC50,[9],180 nM
same,Selectivity ratio,[10],2000
same,Selectivity ratio,[11],2000
same,IC50,[3],1 nM
CC(C)C[C@@H](C(=O)NN(CC(C)C)S(C)(=O)=O)[C@H](C/C=C/c1ccccc1)C(=O)NO,IC50,[3],3 nM
Cc1cc(COc2ccc(N3CCC([C@H](NC(=O)OC(C)(C)C)C(=O)NO)C3=O)cc2)c2ccccc2n1 (stereo partly specified),Selectivity ratio,[4],700
same,Selectivity ratio,[10],300
same,Selectivity ratio,[11],300
Cc1cc(COc2ccc(C3(C)C(=O)NC(=O)NC3=O)cc2)c2ccccc2n1,IC50,[3],1 nM
CC1(C)SCCN(S(=O)(=O)c2ccc(OCC#CCO)cc2)[C@H]1C(=O)NO,IC50,[3],440 nM
Cc1cc(COc2ccc(C(=O)N[C@@H]3COCC[C@@H]3C(=O)NO)cc2)c2ccccc2n1,bioavailability,[12],58%
same,Selectivity ratio,[4],> 30000
same,IC50,[9],130 nM
same,Selectivity ratio,[10],> 30000
same,IC50,[3],< 1 nM
C[C@H](C(=O)NO)N1CC[C@@](C)(c2ccc(Oc3ccccc3)cc2)C1=O,IC50,[3],185 nM
Cc1cc(COc2ccc(NC(=O)[C@@H]3[C@@H](C(=O)NO)CCCN3C)cc2)c2ccccc2n1,IC50,[9],20 nM
same,IC50,[3],6.2 nM
CC#CCOc1ccc(S(=O)(=O)N2Cc3ccc(CO)cc3N(C(C)=O)CC2C(=O)NO)cc1 (stereo unspecified),Selectivity ratio,[4],> 40
COc1cc(COc2ccc3c(c2)NCCN(C(CCCCNS(C)(=O)=O)C(=O)NO)S3(=O)=O)cc(OC)c1 (stereo unspecified),Ki,[8],5 nM
CCC(=O)[C@@H](NC(=O)[C@H](c1ccc(OC)cc1)[C@H](CO)C(=O)NO)C(C)(C)C,ED50,Rattus norvegicus,1 mg/kg
COc1ccc(S(=O)(=O)N(C)c2c(C)cc(Br)cc2C(=O)NO)cc1,IC50,Collagenase 3,11 nM
Cc1cc(COc2ccc(N3C(C(=O)NO)CCCS3(=O)=O)cc2)c2ccccc2n1 (stereo unspecified),Selectivity ratio,[4],> 1000
same,Selectivity ratio,[10],> 1000
same,Selectivity ratio,[11],> 1000
CNC(=O)[C@@H](NC(=O)[C@H](c1ccc(C)cc1)[C@H](CO)C(=O)NO)C(C)(C)C,IC50,[13],141 nM
C[C@H](C(=O)NO)N1CC[C@@](C)(c2ccc(OCc3cc(C(F)(F)F)cc(C(F)(F)F)c3)cc2)C1=O,Selectivity ratio,[4],> 1000
same,Selectivity ratio,[10],> 1000
same,Selectivity ratio,[11],> 1000
same,IC50,[3],2 nM
CC#CCOc1ccc(S(=O)(=O)N(C)c2c(C(=O)NO)cnc3onc(C)c23)cc1,inhibition in vivo at 100 mg/kg,Mus musculus [14],95%
CC#CCOc1ccc(S(=O)(=O)N(C)c2c(C(=O)NO)cnc3c(OC)cccc23)cc1,Selectivity ratio,[4],50
C=CCONC(=O)[C@@H]1[C@@H](C)N(C(C)=O)CCN1S(=O)(=O)c1ccc(OCc2ccc(C)cc2)cc1,IC50,[3],1 nM
same,IC50,Interstitial collagenase,1600 nM
same,IC50,Collagenase 3,3 nM
CNC(=O)[C@@H](NC(=O)[C@H](c1ccc(OC)cc1)[C@H](CO)C(=O)NO)C(C)(C)C,IC50,[13],56 nM
Cc1cc(COc2ccc([C@]3(C)CCN([C@H](C)C(=O)NO)C3=O)cc2)c2ccccc2n1,IC50,[9],350 nM
same,fraction unbound,[15],0.036
Cc1cc(OCc2ccc(NC(=O)[C@H]3CCCC[C@@H]3C(=O)NO)cc2)c2ccccc2n1,IC50,[9],> 50000 nM
same,IC50,[3],8 nM
O=C(NO)[C@@H]1CC[C@H](O)CN1S(=O)(=O)c1ccc(OCc2ccccc2I)cc1,IC50,[3],110000 nM
CC#CCOc1ccc([S+]([O-])C(CCCCCC)C(=O)NO)cc1 (stereo unspecified),IC50,[3],4 nM
CCOP(=O)(N[C@@H](CC(C)C)C(=O)NO)c1ccc(OC)cc1 (stereo partly specified),IC50,[3],76 nM
Cc1cc(COc2ccc(N3CC[C@](C)(CC(=O)NO)C3=O)cc2)c2ccccc2n1,IC50,Blood,1570 nM
same,IC50,[3],1 nM
Cc1cc(COc2ccc([C@]3(N)CCN([C@H](CC(C)C)C(=O)NO)C3=O)cc2)c2ccccc2n1,bioavailability,[16],54%
same,IC50,[9],90 nM
same,ED50,Mus musculus [17],6 mg/kg
same,bioavailability,[18],16%
same,IC50,[3],0.2 nM
same,half-life,[19],3 h
CC#CCOc1ccc(S(=O)(=O)CC2(C(=O)NO)CCN(S(=O)(=O)C(C)C)CC2)cc1,Selectivity ratio,[10],230
